Measurements from patent publication US10653717B2, “Antibiotic compositions” (priority 2016, dated 2020).
Like-named read-outs stand apart in the source and are kept apart here.

Legend:
[1] = tested on: AB-1: Acinetobacter baumannii H#
Experimental: (§1) There are five most difficult-to-treat MDR Gram-negative pathogen species in the clinic, which are also typical GSH-positive bacteria: Klebsiella pneumonia, Acinetobacter baumannii, Pseudomonas aeruginosa, Enterobacter cloacae and Escherichia coli. Two strains of each species were isolated, overnight cultures were diluted 1:1000 times in LB medium, and treated with Ag^+ with a serial concentration of ebselen in combination for 16 h. […] Among these five species, A. baumannii and E. cloacae are very readily formed drug-resistant strains, which are needed to be treated by or the fourth-generation cephalosporin in the clinic, including imipenem, cefepime, and cefotaxime, etc.
(§2) Ten clinical isolated MDR Gram-negative (GSH-positive) strains were grown until an OD600 nm of 0.4 and were diluted 1:100 into 100 μl of LB medium in 96 micro-well plates. Serial dilutions of 100 μl ebselen and AgNO3 were added to the individual wells. […] The culture treated with 0.8% (v/v) DMSO was used as a control.

AB-2: A. baumannii 0361# = tested on: AB-2: A. baumannii 0361#
Experimental: as §1, §2

ECL-2: E. cloacae 2301# = tested on: ECL-2: E. cloacae 2301#
Experimental: as §1, §2

[2] = tested on: ECO-1: Escherichia coli 1139#
Experimental: as §1, §2

ECO-2: E. coli 2219# = tested on: ECO-2: E. coli 2219#
Experimental: as §1, §2

ECO-3: E. coli ZY-1 = tested on: ECO-3: E. coli ZY-1
Experimental: as §1, §2

[3] = tested on: ECO-4: MG1655 (ATCC 700926)
Experimental: as §1, §2

[4] = tested on: KP-1: Klebsiella pneumoniae subsp. pneumoniae 13#
Experimental: as §1, §2

[5] = tested on: PA-2: P. aeruginosa 0009#
Experimental: as §1, §2

[6] = tested on: E. coli DHB4 gor^−grxA^−B^−C^−; test: microbe, parasite or virus in culture; assay type: cell-based, Escherichia coli; settings: 24 h
Experimental: (§3) Since Trx and GSH/Grx are major thiol-dependent systems, investigated were the effects of Ag^+ with ebselen in combination on Trx or GSH system-deficient E. coli redox mutants.
(§4) Serial dilutions of ebselen and AgNO3 were added to the individual wells. The minimum inhibitory concentration (MIC) was determined after 24 h culture at 37° C.

E. coli DHB4 gor^− = test: microbe, parasite or virus in culture; assay type: cell-based, Escherichia coli; settings: 24 h
Experimental: as §3, §4

[7] = tested on: E. coli DHB4 grxA^−trxA^−; test: microbe, parasite or virus in culture; assay type: cell-based, Escherichia coli; settings: 24 h
Experimental: as §3, §4

E. coli DHB4 gshA^− = test: microbe, parasite or virus in culture; assay type: cell-based, Escherichia coli; settings: gshA^−, 24 h
Experimental: as §3, §4

[8] = tested on: E. coli DHB4 trxA^−B^−C^−; test: microbe, parasite or virus in culture; assay type: cell-based, Escherichia coli; settings: 24 h
Experimental: as §3, §4

[9] = tested on: E. coli DHB4 trxA^−gshA^−; test: microbe, parasite or virus in culture; assay type: cell-based, Escherichia coli; settings: trxA^−gshA^−, 24 h
Experimental: as §3, §4

E. coli DHB4 trxA^− = test: microbe, parasite or virus in culture; assay type: cell-based, Escherichia coli; settings: 24 h
Experimental: as §3, §4

E. coli DHB4 trxB^− = test: microbe, parasite or virus in culture; assay type: cell-based, Escherichia coli; settings: 24 h
Experimental: as §3, §4

E. coli DHB4 trxC^− = test: microbe, parasite or virus in culture; assay type: cell-based, Escherichia coli; settings: trxC^−, 24 h
Experimental: as §3, §4

O=[N+]([O-])[O-].[Ag+] [silver, silver nitrate]
MIC of silver in the presence of ebselen ([1]; Ebselen 0 μM): 80 µM
MIC of silver in the presence of ebselen ([1]; Ebselen 1 μM): 80 µM
MIC of silver in the presence of ebselen ([1]; Ebselen 2 μM): 40 µM
MIC of silver in the presence of ebselen ([1]; Ebselen 4 μM): 10 µM
MIC of silver in the presence of ebselen (AB-2: A. baumannii 0361#; Ebselen 0 μM): 80 µM
MIC of silver in the presence of ebselen (AB-2: A. baumannii 0361#; Ebselen 1 μM): 80 µM
MIC of silver in the presence of ebselen (AB-2: A. baumannii 0361#; Ebselen 2 μM): 40 µM
MIC of silver in the presence of ebselen (AB-2: A. baumannii 0361#; Ebselen 4 μM): 20 µM
MIC of silver in the presence of ebselen (ECL-2: E. cloacae 2301#; Ebselen 0 μM): 80 µM
MIC of silver in the presence of ebselen (ECL-2: E. cloacae 2301#; Ebselen 1 μM): 40 µM
MIC of silver in the presence of ebselen (ECL-2: E. cloacae 2301#; Ebselen 2 μM): 40 µM
MIC of silver in the presence of ebselen (ECL-2: E. cloacae 2301#; Ebselen 4 μM): 10 µM
MIC of silver in the presence of ebselen ([2]; Ebselen 0 μM): 40 µM
MIC of silver in the presence of ebselen ([2]; Ebselen 1 μM): 20 µM
MIC of silver in the presence of ebselen ([2]; Ebselen 2 μM): 10 µM
MIC of silver in the presence of ebselen ([2]; Ebselen 4 μM): 5 µM
MIC of silver in the presence of ebselen (ECO-2: E. coli 2219#; Ebselen 0 μM): 80 µM
MIC of silver in the presence of ebselen (ECO-2: E. coli 2219#; Ebselen 1 μM): 80 µM
MIC of silver in the presence of ebselen (ECO-2: E. coli 2219#; Ebselen 2 μM): 40 µM
MIC of silver in the presence of ebselen (ECO-2: E. coli 2219#; Ebselen 4 μM): 10 µM
MIC of silver in the presence of ebselen (ECO-3: E. coli ZY-1; Ebselen 0 μM): 40 µM
MIC of silver in the presence of ebselen (ECO-3: E. coli ZY-1; Ebselen 1 μM): 40 µM
MIC of silver in the presence of ebselen (ECO-3: E. coli ZY-1; Ebselen 2 μM): 20 µM
MIC of silver in the presence of ebselen (ECO-3: E. coli ZY-1; Ebselen 4 μM): 10 µM
MIC of silver in the presence of ebselen ([3]; Ebselen 0 μM): 40 µM
MIC of silver in the presence of ebselen ([3]; Ebselen 1 μM): 20 µM
MIC of silver in the presence of ebselen ([3]; Ebselen 2 μM): 10 µM
MIC of silver in the presence of ebselen ([3]; Ebselen 4 μM): 5 µM
MIC of silver in the presence of ebselen ([4]; Ebselen 0 μM): 80 µM
MIC of silver in the presence of ebselen ([4]; Ebselen 1 μM): 80 µM
MIC of silver in the presence of ebselen ([4]; Ebselen 2 μM): 40 µM
MIC of silver in the presence of ebselen ([4]; Ebselen 4 μM): 10 µM
MIC of silver in the presence of ebselen ([5]; Ebselen 0 μM): 80 µM
MIC of silver in the presence of ebselen ([5]; Ebselen 1 μM): 80 µM
MIC of silver in the presence of ebselen ([5]; Ebselen 2 μM): 40 µM
MIC of silver in the presence of ebselen ([5]; Ebselen 4 μM): 20 µM
MIC of silver in the presence of ebselen ([6]; Ebselen 0 μM): 20 µM
MIC of silver in the presence of ebselen ([6]; Ebselen 1 μM): 10 µM
MIC of silver in the presence of ebselen ([6]; Ebselen 2 μM): 2.5 µM
MIC of silver in the presence of ebselen ([6]; Ebselen 4 μM): 0.625 µM
MIC of silver in the presence of ebselen (E. coli DHB4 gor^−; Ebselen 0 μM): 40 µM
MIC of silver in the presence of ebselen (E. coli DHB4 gor^−; Ebselen 1 μM): 10 µM
MIC of silver in the presence of ebselen (E. coli DHB4 gor^−; Ebselen 2 μM): 5 µM
MIC of silver in the presence of ebselen (E. coli DHB4 gor^−; Ebselen 4 μM): 1.25 µM
MIC of silver in the presence of ebselen ([7]; Ebselen 0 μM): 20 µM
MIC of silver in the presence of ebselen ([7]; Ebselen 1 μM): 10 µM
MIC of silver in the presence of ebselen ([7]; Ebselen 2 μM): 2.5 µM
MIC of silver in the presence of ebselen ([7]; Ebselen 4 μM): 0.625 µM
MIC of silver in the presence of ebselen (E. coli DHB4 gshA^−; Ebselen 0 μM): 20 µM
MIC of silver in the presence of ebselen (E. coli DHB4 gshA^−; Ebselen 1 μM): 5 µM
MIC of silver in the presence of ebselen (E. coli DHB4 gshA^−; Ebselen 2 μM): 2.5 µM
MIC of silver in the presence of ebselen (E. coli DHB4 gshA^−; Ebselen 4 μM): 0.625 µM
MIC of silver in the presence of ebselen ([8]; Ebselen 0 μM): 40 µM
MIC of silver in the presence of ebselen ([8]; Ebselen 1 μM): 10 µM
MIC of silver in the presence of ebselen ([8]; Ebselen 2 μM): 2.5 µM
MIC of silver in the presence of ebselen ([8]; Ebselen 4 μM): 1.25 µM
MIC of silver in the presence of ebselen ([9]; Ebselen 0 μM): 20 µM
MIC of silver in the presence of ebselen ([9]; Ebselen 1 μM): 5 µM
MIC of silver in the presence of ebselen ([9]; Ebselen 2 μM): 2.5 µM
MIC of silver in the presence of ebselen ([9]; Ebselen 4 μM): 0.625 µM
MIC of silver in the presence of ebselen (E. coli DHB4 trxA^−; Ebselen 0 μM): 40 µM
MIC of silver in the presence of ebselen (E. coli DHB4 trxA^−; Ebselen 1 μM): 10 µM
MIC of silver in the presence of ebselen (E. coli DHB4 trxA^−; Ebselen 2 μM): 2.5 µM
MIC of silver in the presence of ebselen (E. coli DHB4 trxA^−; Ebselen 4 μM): 1.25 µM
MIC of silver in the presence of ebselen (E. coli DHB4 trxB^−; Ebselen 0 μM): 40 µM
MIC of silver in the presence of ebselen (E. coli DHB4 trxB^−; Ebselen 1 μM): 10 µM
MIC of silver in the presence of ebselen (E. coli DHB4 trxB^−; Ebselen 2 μM): 2.5 µM
MIC of silver in the presence of ebselen (E. coli DHB4 trxB^−; Ebselen 4 μM): 0.625 µM
MIC of silver in the presence of ebselen (E. coli DHB4 trxC^−; Ebselen 0 μM): 40 µM
MIC of silver in the presence of ebselen (E. coli DHB4 trxC^−; Ebselen 1 μM): 10 µM
MIC of silver in the presence of ebselen (E. coli DHB4 trxC^−; Ebselen 2 μM): 5 µM
MIC of silver in the presence of ebselen (E. coli DHB4 trxC^−; Ebselen 4 μM): 1.25 µM
